The values below come from ChEMBL document CHEMBL1201862, “PubChem BioAssay data set” (2004).

The source made the active and inactive calls.

For test [1], the target named is Metabotropic glutamate receptor 3 (Rattus norvegicus, UniProt P31422). The experiment in a line: inhibition of rat mGlu3 glutamate signaling – HEK/GIRK cells, thallium flux, dose response (AID 651839). It counts as functional.
The nature of test [2]: cytotoxicity in HEK293 background cells – cell-based, dry powder, set 2, counter-screen for EBV LMP1 inhibitor project, dose response (AID 624374). The format is functional.
A short description of test [3]: inhibitors of EBV LMP1 NF-kappaB signaling – cell-based, luciferase reporter, luminescence, dry powder, set 2, dose response (AID 624376). It counts as functional.
The next test addresses T1, ORF 73 (Human herpesvirus 8, UniProt O40947).
T1 sequence (O40947 whole entry): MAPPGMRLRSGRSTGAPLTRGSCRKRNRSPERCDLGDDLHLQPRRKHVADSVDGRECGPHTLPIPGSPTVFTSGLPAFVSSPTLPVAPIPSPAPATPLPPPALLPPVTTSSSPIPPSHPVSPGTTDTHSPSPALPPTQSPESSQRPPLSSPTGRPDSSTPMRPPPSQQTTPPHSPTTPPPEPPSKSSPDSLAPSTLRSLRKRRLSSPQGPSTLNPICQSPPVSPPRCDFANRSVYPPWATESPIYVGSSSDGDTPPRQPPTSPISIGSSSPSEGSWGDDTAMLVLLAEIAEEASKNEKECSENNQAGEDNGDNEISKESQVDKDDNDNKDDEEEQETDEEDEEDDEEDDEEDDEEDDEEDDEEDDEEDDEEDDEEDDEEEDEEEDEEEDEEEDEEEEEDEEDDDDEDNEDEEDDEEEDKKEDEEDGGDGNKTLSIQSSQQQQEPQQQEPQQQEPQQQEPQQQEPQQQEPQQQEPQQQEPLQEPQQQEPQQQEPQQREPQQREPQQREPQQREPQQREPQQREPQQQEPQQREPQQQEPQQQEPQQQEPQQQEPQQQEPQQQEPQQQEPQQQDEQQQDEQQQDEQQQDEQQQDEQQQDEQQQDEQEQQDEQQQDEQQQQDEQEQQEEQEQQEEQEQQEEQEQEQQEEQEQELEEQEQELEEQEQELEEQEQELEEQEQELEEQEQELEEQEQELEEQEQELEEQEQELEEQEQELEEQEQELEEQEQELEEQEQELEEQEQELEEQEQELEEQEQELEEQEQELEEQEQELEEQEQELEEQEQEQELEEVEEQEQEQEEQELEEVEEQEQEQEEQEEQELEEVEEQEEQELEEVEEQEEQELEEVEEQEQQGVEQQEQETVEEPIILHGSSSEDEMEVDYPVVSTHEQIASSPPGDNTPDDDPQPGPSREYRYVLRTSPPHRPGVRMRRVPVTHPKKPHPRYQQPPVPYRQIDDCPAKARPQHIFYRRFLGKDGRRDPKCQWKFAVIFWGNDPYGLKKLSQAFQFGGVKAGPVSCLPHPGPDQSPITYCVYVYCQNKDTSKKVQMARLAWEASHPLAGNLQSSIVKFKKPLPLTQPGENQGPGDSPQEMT
Kind of test: KSHV LANA DNA-binding disruption – biochemical, fluorescence polarization, cherry-picked samples, dose response (AID 504725).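 Further: fluorescence polarization of a labeled DNA duplex reporting LANA DNA binding; potency is for inhibitors that block LANA binding to the DNA.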 More on the design: species or system Human gammaherpesvirus 8.

For test [4], the target named is T2, Insulin-degrading enzyme (Homo sapiens, UniProt P14735).
T2 sequence (P14735 whole entry): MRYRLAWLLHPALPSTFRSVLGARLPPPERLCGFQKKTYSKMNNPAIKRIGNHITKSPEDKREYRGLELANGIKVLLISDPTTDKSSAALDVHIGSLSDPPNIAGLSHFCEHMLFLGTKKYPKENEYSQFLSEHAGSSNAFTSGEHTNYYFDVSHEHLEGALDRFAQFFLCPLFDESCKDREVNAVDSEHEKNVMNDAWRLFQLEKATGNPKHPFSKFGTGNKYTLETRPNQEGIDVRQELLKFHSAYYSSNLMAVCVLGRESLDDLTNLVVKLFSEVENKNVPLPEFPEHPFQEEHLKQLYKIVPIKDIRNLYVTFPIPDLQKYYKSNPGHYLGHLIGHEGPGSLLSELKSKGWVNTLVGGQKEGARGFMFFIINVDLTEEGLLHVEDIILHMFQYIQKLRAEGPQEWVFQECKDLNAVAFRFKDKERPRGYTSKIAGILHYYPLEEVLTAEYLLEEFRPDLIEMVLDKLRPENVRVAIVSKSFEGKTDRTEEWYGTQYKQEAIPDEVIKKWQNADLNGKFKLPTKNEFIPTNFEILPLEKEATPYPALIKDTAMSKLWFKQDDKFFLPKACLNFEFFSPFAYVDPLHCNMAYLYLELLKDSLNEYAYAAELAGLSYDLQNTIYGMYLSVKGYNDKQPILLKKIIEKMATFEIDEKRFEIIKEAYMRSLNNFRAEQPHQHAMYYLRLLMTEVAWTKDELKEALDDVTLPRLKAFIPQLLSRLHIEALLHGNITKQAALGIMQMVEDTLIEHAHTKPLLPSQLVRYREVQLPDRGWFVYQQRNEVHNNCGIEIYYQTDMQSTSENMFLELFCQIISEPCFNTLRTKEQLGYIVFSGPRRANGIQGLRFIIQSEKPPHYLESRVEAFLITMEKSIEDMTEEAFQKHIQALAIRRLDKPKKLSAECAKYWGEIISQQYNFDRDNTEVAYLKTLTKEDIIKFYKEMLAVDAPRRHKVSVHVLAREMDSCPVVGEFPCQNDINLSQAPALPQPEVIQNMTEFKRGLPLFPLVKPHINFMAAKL
The experiment in a line: recombinant IDE activation, cell-free – biochemical, fluorescence polarization, counter-screen for IDE activator project, dose response (AID 588681).

Test [5] deals with HEK293. Kind of test: optical interference in Abeta FP readout, dose response, artefact control for IDE activator project, biochemical, fluorescence polarization (AID 588442). The format is functional, cell-based. As to conditions: Homo sapiens.
Another test relates to HeLa. Kind of test: viability loss in HeLa cells – cell-based, 24 h, cherry-picked samples, cytotoxicity control, dose response (AID 504726).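 Further: potency for cytotoxicity as loss of luminescence signal.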 The conditions noted are these: Homo sapiens. The format is functional.
For test [6], the system named is HEK293. Kind of test: membrane integrity loss in HEK cells – cell-based, fluorescence, cytotoxicity control for IDE activator project, dose response (AID 588440).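 Further: cytotoxicity by LDH release measuring loss of membrane integrity.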 The conditions noted are these: Homo sapiens. The format is functional.
Test [7] addresses T2, Insulin-degrading enzyme. The experiment in a line: cellular IDE activation of Abeta substrate cleavage – fluorescence polarization, HEK cells, dose response (AID 588439). The format is functional, cell-based.
A further test deals with Protein S100-A4 (Homo sapiens, UniProt P26447). Kind of test: human S100A4 peptide interaction inhibition curves – biochemical, fluorescence polarization, cherry-picked hits, dose response (AID 687001). It counts as functional.
Chain of Protein S100-A4 (P26447 whole entry): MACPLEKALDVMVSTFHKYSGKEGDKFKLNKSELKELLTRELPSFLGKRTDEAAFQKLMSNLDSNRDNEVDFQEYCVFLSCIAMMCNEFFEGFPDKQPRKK
Test [8] is described as follows: Late stage assay provider results from the probe development effort to identify selective inhibitors of heat shock protein 90 (HSP90): Absorbance-based cell proliferation assay in MCF7 cells. The format is functional.
Test [9] can be described thus: Late stage assay provider results from the probe development effort to identify selective inhibitors of heat shock protein 90 (HSP90): Absorbance-based cell proliferation assay in SKBR3 cells. The format is functional. The conditions noted are these: SK-BR-3.
In test [10] the target is Tyrosyl-DNA phosphodiesterase 2 (Homo sapiens, UniProt O95551). The experiment in a line: potency against TDP2 phosphodiesterase activity – biochemical, epi absorbance, IC50, dose response (AID 743297).
Chain of Tyrosyl-DNA phosphodiesterase 2 (O95551 whole entry): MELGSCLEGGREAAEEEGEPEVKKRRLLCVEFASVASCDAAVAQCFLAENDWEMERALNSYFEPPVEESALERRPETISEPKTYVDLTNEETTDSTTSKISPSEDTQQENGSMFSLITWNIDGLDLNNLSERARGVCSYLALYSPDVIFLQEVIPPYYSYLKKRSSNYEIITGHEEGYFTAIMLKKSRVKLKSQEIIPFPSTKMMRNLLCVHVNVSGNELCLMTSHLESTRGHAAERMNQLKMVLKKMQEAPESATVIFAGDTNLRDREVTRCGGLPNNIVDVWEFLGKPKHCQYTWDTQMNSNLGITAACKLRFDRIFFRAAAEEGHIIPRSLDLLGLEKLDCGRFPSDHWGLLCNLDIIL
The target of another test is T3, Protein RecA (Mycobacterium tuberculosis, UniProt P9WHJ3).
T3 sequence (P9WHJ3 whole entry): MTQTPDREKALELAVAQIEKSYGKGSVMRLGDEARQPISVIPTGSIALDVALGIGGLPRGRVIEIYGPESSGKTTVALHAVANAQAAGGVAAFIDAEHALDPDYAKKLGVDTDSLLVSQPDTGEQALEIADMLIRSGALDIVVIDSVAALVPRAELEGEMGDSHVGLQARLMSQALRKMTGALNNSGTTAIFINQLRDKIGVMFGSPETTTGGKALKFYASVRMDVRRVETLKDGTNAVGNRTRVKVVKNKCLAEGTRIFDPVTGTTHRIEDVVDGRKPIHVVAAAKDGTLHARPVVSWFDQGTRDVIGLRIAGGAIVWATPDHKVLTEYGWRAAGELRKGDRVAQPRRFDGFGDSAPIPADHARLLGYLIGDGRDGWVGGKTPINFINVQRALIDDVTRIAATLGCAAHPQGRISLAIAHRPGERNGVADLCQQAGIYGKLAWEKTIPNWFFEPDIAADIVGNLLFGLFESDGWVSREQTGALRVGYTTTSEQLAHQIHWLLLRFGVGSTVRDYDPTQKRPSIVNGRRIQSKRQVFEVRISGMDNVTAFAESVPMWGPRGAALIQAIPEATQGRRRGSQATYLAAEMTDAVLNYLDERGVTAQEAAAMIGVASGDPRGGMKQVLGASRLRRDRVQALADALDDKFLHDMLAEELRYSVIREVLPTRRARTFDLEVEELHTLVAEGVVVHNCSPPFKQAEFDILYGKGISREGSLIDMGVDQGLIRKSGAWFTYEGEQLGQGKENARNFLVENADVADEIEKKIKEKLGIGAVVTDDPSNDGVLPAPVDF
Kind of test: Fluorescence Cell-Free Homogeneous Dose Retest to Identify Inhibitors of RecA-Intein Splicing Activity. [Related pubchem assays (depositor defined):AID2097, AID2223, AID489010, AID492950]. It counts as functional.

Test [11] concerns the target T4, Replicative DNA helicase DnaB (Mycobacterium tuberculosis, UniProt P9WMR3).
T4 sequence (P9WMR3 whole entry): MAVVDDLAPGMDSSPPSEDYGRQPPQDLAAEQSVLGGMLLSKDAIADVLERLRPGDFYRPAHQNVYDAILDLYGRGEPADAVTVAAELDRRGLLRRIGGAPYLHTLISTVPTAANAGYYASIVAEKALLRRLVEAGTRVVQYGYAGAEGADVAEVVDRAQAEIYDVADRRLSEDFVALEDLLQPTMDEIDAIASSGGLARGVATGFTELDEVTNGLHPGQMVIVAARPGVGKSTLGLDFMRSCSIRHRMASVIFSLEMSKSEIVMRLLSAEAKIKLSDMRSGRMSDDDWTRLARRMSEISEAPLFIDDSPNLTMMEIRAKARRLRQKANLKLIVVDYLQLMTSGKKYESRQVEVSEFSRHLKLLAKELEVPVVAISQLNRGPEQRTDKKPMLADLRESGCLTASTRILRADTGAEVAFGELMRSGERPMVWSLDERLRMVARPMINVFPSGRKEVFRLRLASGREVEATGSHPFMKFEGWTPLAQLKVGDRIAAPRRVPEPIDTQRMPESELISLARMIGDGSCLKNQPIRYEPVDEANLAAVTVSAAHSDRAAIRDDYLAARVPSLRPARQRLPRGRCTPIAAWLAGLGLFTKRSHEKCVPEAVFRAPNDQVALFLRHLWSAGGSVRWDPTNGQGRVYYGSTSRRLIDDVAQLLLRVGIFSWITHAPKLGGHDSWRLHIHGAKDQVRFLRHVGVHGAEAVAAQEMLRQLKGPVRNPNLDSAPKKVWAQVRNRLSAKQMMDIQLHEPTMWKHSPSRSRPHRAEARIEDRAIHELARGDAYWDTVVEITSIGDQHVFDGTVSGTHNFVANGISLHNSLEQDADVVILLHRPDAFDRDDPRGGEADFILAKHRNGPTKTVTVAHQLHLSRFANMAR
Kind of test: DnaB intein splicing inhibitors, dose response, biochemical, cell-free fluorescence (AID 449749). It counts as functional.

For test [12], the target named is Oxysterols receptor LXR-beta (Homo sapiens, UniProt P55055). It counts as functional, cell-based.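 Further: agonist activity at LXR measured by a cell-based luminescence readout across a dose range, run as a counterscreen for daf-12 agonists; HEK293 cells with Gal4-LXR fusion and GAL4-driven luciferase reporter; potency for activation of Gal4-LXR reporter so compounds are agonists.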
Chain of Oxysterols receptor LXR-beta (P55055 whole entry, the tested form may be a part): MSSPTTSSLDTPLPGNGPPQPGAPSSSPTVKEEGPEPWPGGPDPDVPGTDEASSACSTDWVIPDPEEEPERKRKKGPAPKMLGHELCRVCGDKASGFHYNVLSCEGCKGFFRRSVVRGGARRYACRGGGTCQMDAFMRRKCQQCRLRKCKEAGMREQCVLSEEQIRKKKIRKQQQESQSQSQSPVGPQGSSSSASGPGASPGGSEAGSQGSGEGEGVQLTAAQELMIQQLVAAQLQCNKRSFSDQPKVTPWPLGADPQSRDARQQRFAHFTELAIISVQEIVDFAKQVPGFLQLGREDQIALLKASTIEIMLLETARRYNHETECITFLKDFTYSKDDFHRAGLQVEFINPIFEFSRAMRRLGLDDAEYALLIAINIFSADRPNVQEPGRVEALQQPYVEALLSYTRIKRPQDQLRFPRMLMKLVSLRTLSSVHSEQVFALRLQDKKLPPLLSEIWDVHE
Test [13] is described as follows: A Cell-Based Confirmatory Screen for Compounds that Inhibit VEEV, TC-83 (8). It counts as functional.
The nature of test [14]: disruptors of Keap1/Nrf2 protein interaction – biochemical, fluorescence polarization, dry powder, set 3, dose response (AID 651806).
For a further test, the target named is Albumin (Bos taurus, UniProt P02769). Kind of test: Counterscreen for inhibitors of T-cell receptor (TCR)-CD3 interaction: Fluorescence-based biochemical high throughput dose response assay to identify inhibitors of T-cell receptor (TCR)-CD3 interaction using a TAMRA-labeled BSA probe. It counts as functional.
Chain of Albumin (P02769 whole entry): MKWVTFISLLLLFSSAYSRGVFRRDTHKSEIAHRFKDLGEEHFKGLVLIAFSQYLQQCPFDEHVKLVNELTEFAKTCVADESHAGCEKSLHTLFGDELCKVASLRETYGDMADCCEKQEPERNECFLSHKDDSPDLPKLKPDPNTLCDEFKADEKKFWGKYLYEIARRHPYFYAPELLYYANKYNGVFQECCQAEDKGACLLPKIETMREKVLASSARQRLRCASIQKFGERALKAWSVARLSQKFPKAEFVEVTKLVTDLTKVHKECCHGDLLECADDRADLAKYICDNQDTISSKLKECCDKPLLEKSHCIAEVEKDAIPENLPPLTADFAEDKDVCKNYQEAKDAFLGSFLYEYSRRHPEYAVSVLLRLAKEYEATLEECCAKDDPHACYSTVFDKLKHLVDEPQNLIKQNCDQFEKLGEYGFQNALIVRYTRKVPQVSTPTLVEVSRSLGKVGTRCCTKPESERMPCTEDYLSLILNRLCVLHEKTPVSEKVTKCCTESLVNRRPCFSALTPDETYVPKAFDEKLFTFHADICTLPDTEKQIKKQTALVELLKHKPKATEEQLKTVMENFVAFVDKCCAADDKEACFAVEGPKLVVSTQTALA
A further test relates to H9c2. The experiment in a line: cells. The format is functional, cell-based. As to conditions: Rattus norvegicus, H9c2, Myocardium.

Chain of Metabotropic glutamate receptor 3 (P31422 whole entry): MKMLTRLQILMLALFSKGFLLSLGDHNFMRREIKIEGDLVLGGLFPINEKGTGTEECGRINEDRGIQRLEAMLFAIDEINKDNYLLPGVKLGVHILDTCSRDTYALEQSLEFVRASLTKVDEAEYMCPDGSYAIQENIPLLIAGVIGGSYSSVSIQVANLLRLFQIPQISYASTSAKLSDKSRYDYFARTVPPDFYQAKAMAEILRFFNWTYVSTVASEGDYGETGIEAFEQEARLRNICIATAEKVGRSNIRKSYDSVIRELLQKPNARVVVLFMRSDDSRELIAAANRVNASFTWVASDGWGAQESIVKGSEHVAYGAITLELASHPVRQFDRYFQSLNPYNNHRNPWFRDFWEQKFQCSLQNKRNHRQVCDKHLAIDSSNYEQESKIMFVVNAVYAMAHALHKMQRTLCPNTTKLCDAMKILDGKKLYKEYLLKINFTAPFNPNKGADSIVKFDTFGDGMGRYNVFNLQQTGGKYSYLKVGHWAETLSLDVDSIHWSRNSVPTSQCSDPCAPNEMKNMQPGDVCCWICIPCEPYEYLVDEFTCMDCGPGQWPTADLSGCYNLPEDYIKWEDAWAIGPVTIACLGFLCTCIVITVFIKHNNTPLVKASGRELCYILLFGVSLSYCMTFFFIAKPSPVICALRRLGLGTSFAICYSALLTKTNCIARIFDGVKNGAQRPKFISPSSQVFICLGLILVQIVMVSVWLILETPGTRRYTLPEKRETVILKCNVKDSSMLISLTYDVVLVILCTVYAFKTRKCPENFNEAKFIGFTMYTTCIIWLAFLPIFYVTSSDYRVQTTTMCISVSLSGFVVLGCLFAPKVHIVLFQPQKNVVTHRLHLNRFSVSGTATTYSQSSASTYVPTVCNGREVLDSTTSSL

As to `COc1ccc(C#Cc2ccc(C(=O)N3CCC(OC)C3)cc2)cc1` (stereo not given), the IC50 in test [1] is 10.7 µM (active).

As to `CCC(=O)N1Cc2cc(C(=O)Nc3nccs3)nc(-c3cccc(-c4ccccc4OC)c3)c2[C@H]1CCO`, the AbsAC35 stood at 247.5 µM in test [2] and 49.1 µM in test [3].

Take `COc1ccc2c3c(cccc13)C(=O)CC2`: the AC50 was 6.76 µM (active) at ORF 73, 31.7 µM (active) in the test with HeLa and 7.21 µM (active) at Protein S100-A4. Further, the EC50 was > 54.7 µM (inactive) at Insulin-degrading enzyme [4], > 18.6 µM (inactive) with HEK293 [5] and > 54.7 µM (inactive) at Insulin-degrading enzyme [7]. Besides, the IC50 in the test with HEK293 [6] is > 89.2 µM (inactive).

For the molecule `COc1ccccc1NC(=O)c1cc(=O)c(OC)c[nH]1`, the IC50 in [8] and in test [9] was > 100 µM (inactive) throughout.

For the molecule `Cc1cc(=O)n(C2CCS(=O)(=O)C2)[nH]1` (stereo not given), the IC50 in test [10] was > 128 µM (inactive). At Protein RecA, the concentration for a half-maximal effect (EC50) was 1.91 µM (active). The concentration at half-maximal activity (AC50) in [11] was 3.43 µM (active).

As for `O=C(O)c1cc(-c2cccs2)[nH]n1`, the EC50 in [12] was > 67.6 µM (inactive).

Turning to `CN1CCN(C)/C(=N/c2ccc(F)cc2C(=O)Nc2ccccc2)C1`, the half-maximal inhibitory concentration (IC50) in test [13] was 6.39 µM (active).

On to `O=C(O)Cc1ccccc1C(=O)N1CCc2ccccc2[C@H]1CN1C(=O)c2ccccc2C1=O`, for which the AC50 in [14] was 61.4 µM (active).

On to `COC(=O)Cn1/c(=N/C(=O)c2cc(-c3cccs3)nc3ccccc23)sc2cc(S(N)(=O)=O)ccc21`, for which the values for the IC50 on Albumin and in the test on H9c2 were > 94.1 µM (inactive) and 28.2 µM (active), respectively.
